One assay addresses SpCas9 (Streptococcus pyogenes serotype M1, UniProt Q99ZW2). As to the kind of experiment: Strand displacement assay (SDA) / cumulative activity assay (CAA), SpCas9 primary screen. The note with it: Primary Screen (150 min); for Average Normalized Z score: average of replicates; for Normalized Z score 1: replicate 1; for Normalized Z score 2: replicate 2. The format is biochemical. As for the experimental part:
Screening of inhibitors was via a high throughput pipeline, as depicted in FIG. 29. The first screening is via a strand displacement assay (SDA) for detecting nuclease activity (FIG. 27A, 28A). The Cpf1/Cas12 protein/DNA complex has a different structure from Cas9 and requires optimization of the potential fluorophore attachment sites (Yamano, T et al., Cell, 2016). (FIG. 28A). Next screened compounds are evaluated in an eGFP cell assay, and for eGFP dose. Those compounds are further narrowed via a HiBiT assay and finally evaluated in the surveyor assay. SAR evaluations are performed to arrive at lead compounds for further evaluations and variations. General methodology for the assays is as described in at [0253]-[0301] of U.S. Patent Application 62/831,143 filed Apr. 8, 2019, incorporated herein by reference.
The 3′ end of the displacing single-stranded DNA was labeled with a quencher. Following nuclease cleavage of the substrate, the 3′-labeled quenching DNA strand (present in excess) could outcompete the weakly held 3′ strand to anneal to the 5′ strand. The resulting FRET fluorescence quenching provides an optical readout for nuclease activity (FIG. 62A).
Typically, SpCas9: gRNA (1:1.2 ratio) RNP was pre-formed at 1 μM in Cas9 assay buffer (20 mM Tris-HCl, pH=7.5, 100 mM KCl, 5 mM MgCl2) for 5 min at 4° C. before diluting to 10 nM in Cas9 assay buffer (2× final concentration). 25 μL of the Cas9 2× stock was manually dispensed to a black 384-well plate (Corning 3575) using electronic pipette. […] Following this, pre-annealed Alexa-Fluor 647 labeled substrate and quencher were also diluted to 1 nM and 5 nM in Cas9 assay buffer, respectively (2× stock solution). Next, 25 μL of the substrate/quencher solution was added manually to each well of the Cas9-containing 384-well plates using an electronic pipette and was incubated at 37° C. for 2.5 h. Fluorescent signals were read with the microplate reader set to read Alexa-Fluor 647 fluorescence. Assay was performed similarly with SaCas9 and FnCas12a using the respective enzyme, gRNA, substrate, and quencher oligos. […]

For the next assay, the target named is T1, SaCas9 (Staphylococcus aureus, UniProt J7RUA5).
T1 sequence (J7RUA5 1-1053): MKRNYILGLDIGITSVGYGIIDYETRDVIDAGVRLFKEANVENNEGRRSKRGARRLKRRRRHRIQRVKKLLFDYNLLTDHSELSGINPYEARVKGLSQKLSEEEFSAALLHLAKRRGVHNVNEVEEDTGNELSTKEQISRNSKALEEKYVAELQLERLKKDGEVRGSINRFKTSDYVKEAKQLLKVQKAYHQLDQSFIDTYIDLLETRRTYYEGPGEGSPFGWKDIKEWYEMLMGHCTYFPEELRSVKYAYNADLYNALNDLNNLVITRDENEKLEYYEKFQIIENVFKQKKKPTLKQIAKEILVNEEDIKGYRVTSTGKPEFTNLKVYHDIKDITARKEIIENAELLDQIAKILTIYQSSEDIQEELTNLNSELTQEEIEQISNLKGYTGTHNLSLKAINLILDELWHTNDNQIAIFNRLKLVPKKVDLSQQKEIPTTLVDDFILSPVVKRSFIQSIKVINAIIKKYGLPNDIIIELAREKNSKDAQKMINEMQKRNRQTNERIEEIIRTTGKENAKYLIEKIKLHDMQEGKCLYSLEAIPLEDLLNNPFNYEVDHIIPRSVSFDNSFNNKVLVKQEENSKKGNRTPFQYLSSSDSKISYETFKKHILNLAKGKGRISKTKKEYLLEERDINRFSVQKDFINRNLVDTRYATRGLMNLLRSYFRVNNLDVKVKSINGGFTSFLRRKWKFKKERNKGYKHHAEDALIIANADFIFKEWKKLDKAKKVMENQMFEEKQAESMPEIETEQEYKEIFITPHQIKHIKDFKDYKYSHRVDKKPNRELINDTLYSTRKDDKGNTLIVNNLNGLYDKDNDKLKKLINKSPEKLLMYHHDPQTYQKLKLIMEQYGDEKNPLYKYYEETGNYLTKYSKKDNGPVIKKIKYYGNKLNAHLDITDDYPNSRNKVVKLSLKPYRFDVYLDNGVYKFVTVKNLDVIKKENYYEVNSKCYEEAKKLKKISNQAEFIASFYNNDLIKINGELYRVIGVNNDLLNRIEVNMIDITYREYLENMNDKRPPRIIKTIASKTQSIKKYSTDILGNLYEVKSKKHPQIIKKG
As to the kind of experiment: Strand displacement assay, SaCas9 primary screen. Type of assay: biochemical. The settings on record: for Auto Zscore Rep 1 / Auto Zscore Rep 2 / Normalized Zscore Rep 1 / Normalized Zscore Rep 2: SaCas9 primary screen; for Auto Zscore Rep 1 / Normalized Zscore Rep 1: replicate 1; for Auto Zscore Rep 2 / Normalized Zscore Rep 2: replicate 2; for Normalized Zscore Rep 1 / Normalized Zscore Rep 2: weaker potential hits; for 3 sigma Hit: flag 1 = hit at 3 sigma; for 5 sigma Hit: flag 1 = hit at 5 sigma. Summed up: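 Cas9 RNP (1:1.2 protein:gRNA) pre-formed in 20 mM Tris-HCl pH 7.5, 100 mM KCl, 5 mM MgCl2, used at 10 nM (2× stock) with Alexa-Fluor 647 substrate/quencher at 1 nM/5 nM (2× stock). Reaction ran 2.5 h at 37°C; strand displacement read as fluorescence. Hits called by Z-score: 3–5σ weak, >5σ strong.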

Sequence of SpCas9 (Q99ZW2 whole entry): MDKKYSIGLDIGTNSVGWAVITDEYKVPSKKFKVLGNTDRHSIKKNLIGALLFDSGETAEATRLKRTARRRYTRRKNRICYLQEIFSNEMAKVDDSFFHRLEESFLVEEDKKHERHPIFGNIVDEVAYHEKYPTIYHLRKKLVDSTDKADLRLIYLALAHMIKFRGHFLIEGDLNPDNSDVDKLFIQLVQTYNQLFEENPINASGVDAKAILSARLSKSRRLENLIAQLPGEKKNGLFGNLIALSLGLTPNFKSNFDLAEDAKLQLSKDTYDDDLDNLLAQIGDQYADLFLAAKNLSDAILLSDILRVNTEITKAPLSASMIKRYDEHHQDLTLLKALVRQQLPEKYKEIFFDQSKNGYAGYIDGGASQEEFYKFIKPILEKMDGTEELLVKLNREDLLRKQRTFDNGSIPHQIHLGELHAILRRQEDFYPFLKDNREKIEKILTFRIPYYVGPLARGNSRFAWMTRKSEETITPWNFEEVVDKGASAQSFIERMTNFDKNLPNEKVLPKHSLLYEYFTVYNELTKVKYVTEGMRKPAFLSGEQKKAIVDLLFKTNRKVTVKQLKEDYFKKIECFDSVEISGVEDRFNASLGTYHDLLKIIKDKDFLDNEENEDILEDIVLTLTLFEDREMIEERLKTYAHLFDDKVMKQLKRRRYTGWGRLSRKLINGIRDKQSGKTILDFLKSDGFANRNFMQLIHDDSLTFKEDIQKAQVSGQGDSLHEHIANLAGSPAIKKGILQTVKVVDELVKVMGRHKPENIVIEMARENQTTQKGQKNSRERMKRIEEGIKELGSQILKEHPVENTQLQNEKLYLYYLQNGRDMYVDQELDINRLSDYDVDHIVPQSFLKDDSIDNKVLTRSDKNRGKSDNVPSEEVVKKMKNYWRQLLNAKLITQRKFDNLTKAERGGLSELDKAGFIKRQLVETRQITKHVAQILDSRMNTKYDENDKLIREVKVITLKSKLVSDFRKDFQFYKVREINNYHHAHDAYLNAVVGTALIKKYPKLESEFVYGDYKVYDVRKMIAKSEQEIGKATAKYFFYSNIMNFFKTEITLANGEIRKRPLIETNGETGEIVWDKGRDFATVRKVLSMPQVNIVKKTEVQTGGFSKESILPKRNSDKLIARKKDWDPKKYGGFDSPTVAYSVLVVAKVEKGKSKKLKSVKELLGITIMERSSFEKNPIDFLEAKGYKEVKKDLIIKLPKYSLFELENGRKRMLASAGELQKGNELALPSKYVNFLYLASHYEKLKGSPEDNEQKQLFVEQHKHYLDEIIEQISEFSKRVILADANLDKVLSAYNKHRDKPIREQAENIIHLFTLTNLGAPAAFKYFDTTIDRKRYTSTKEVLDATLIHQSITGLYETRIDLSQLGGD

Consider `CCOC(=O)C1CCCN(Cn2nnn(-c3ccc(OC)cc3)c2=S)C1` (stereo not drawn) [Compound T0513-0218], for which, on SpCas9, the “avg z score primary” value turned out to be 3.45, the “Average Normalized Z score” value is on record as 0.04, the “Normalized Z score 1” value was determined as 0.04 and the “Normalized Z score 2” value came out at 0.03.

`Cc1ccc(Cl)cc1NC(=O)C1=NCCN1` [Compound T0519-9012]: at SpCas9, the “avg z score primary” value turned out to be 5.06, the “Average Normalized Z score” value worked out at 0.10, the “Normalized Z score 1” value was 0.08 and the “Normalized Z score 2” value worked out at 0.12.

For the compound `O=C(CSc1nnc2ccccn12)Nc1cc(C(=O)O)cc(C(=O)O)c1` [Compound T0513-0201], at SpCas9, the “avg z score primary” value stood at 11.30, the “Average Normalized Z score” value is given as 0.11, the “Normalized Z score 1” value was determined as 0.10 and the “Normalized Z score 2” value is reported as 0.13.

Regarding `O=C1NC(=S)C(=C2CCCC2)S1` [Compound T5441809], at SpCas9, the “avg z score primary” value is listed as 22.96, the “Average Normalized Z score” value was determined as 0.26, the “Normalized Z score 1” value was 0.27 and the “Normalized Z score 2” value worked out at 0.24.

In the case of `Cc1sc2nc3n(c(=O)c2c1-c1ccccc1)CCC3` [Compound T0520-0462], on SpCas9, the “avg z score primary” value is 4.18, the “Average Normalized Z score” value was determined as 0.04, the “Normalized Z score 1” value was 0.04 and the “Normalized Z score 2” value was found to be 0.05.

As to `O=C(O)c1cccc(NCC2SC(=S)NC2=O)c1` (stereo not drawn) [Compound T0514-3358], at SpCas9, the “avg z score primary” value was determined as 4.79, the “Average Normalized Z score” value stood at 0.30, the “Normalized Z score 1” value turned out to be 0.32 and the “Normalized Z score 2” value was 0.27.

In the case of `O=C(O)CSc1nnc(NC2CCCCC2)s1` [Compound T5211003], at SpCas9, the “avg z score primary” value is reported as 4.50, the “Average Normalized Z score” value amounted to 0.05, the “Normalized Z score 1” value is given as 0.05 and the “Normalized Z score 2” value is on record as 0.05.

As for `CCC(CC)NC(=O)c1ccc2ncsc2c1` [Compound T5324509], on SpCas9, the “avg z score primary” value stood at 7.80, the “Average Normalized Z score” value was found to be 0.10, the “Normalized Z score 1” value is 0.12 and the “Normalized Z score 2” value amounted to 0.09.

For `NC(=S)c1ccccn1` [Compound T5211106], on SpCas9, the “avg z score primary” value turned out to be 3.58, the “Average Normalized Z score” value stood at 0.04, the “Normalized Z score 1” value was determined as 0.04 and the “Normalized Z score 2” value is reported as 0.04.

For `Cc1ccc(C(=O)n2ncn(C)c2=S)cc1` [Compound T0510-3476], at SpCas9, the “avg z score primary” value amounted to 28.56, the “Average Normalized Z score” value came out at 0.41, the “Normalized Z score 1” value is 0.39 and the “Normalized Z score 2” value stood at 0.42.

For the compound `Cn1cccc1/C=C\C(=O)O` [Compound T5365031], on SpCas9, the “avg z score primary” value is given as 4.17, the “Average Normalized Z score” value was 0.28, the “Normalized Z score 1” value was found to be 0.27 and the “Normalized Z score 2” value was 0.28.

Regarding `N=C1N=CC(=NNc2cc(C(=O)O)ccc2Cl)S1` [Compound T5253378], at SpCas9, the “avg z score primary” value is 4.20, the “Average Normalized Z score” value came to 0.07, the “Normalized Z score 1” value was determined as 0.08 and the “Normalized Z score 2” value was 0.07.

Turning to `Cl.NC(CO)C(=O)NNCc1ccc(O)c(O)c1O` (stereo not drawn) [Compound S2453], at SpCas9, the “avg z score primary” value worked out at 5.09, the “Average Normalized Z score” value is 0.26, the “Normalized Z score 1” value is listed as 0.21 and the “Normalized Z score 2” value is on record as 0.32.

Turning to `Cc1cccc(Nc2nc(C(N)=O)c(NC(=O)c3ccc(F)cc3)s2)c1C` [Cpd D686-0236], at SaCas9, the “Auto Zscore Rep 1” value was found to be 2.51, the “Auto Zscore Rep 2” value worked out at 1.919, the “Normalized Zscore Rep 1” value turned out to be 0.2077 and the “Normalized Zscore Rep 2” value was determined as 0.4936. Besides, on SaCas9, the “3 sigma Hit” value is listed as 1.

As to `Cc1c(NC(=O)C2=Cc3sc4c(c3CS2)CCCC4)c(=O)n(-c2ccccc2)n1C` [Cpd E722-2603], at SaCas9, the “Auto Zscore Rep 1” value is reported as −0.3069, the “Auto Zscore Rep 2” value worked out at 2.714, the “Normalized Zscore Rep 1” value is given as 0.2035 and the “Normalized Zscore Rep 2” value is 0.262. Moreover, the “3 sigma Hit” value on SaCas9 was found to be 1.

In the case of `CCN(Cc1ccccc1)c1ccc(NS(=O)(=O)c2c(C)cc(C)cc2C)cc1C(=O)O` [Cpd F294-0002], at SaCas9, the “Auto Zscore Rep 1” value is listed as −0.1185, the “Auto Zscore Rep 2” value is reported as 0.01199, the “Normalized Zscore Rep 1” value is recorded as 0.2241 and the “Normalized Zscore Rep 2” value came to 0.205. On SaCas9, the “3 sigma Hit” value stood at 1 and the “5 sigma Hit” value worked out at 1.

For `Cc1nn2c(=O)cc(COc3ccc(C)c(C)c3)nc2s1` [Cpd C679-2752], at SaCas9, the “Auto Zscore Rep 1” value was found to be 0.9351, the “Auto Zscore Rep 2” value is reported as −0.9427, the “Normalized Zscore Rep 1” value was found to be 0.5034 and the “Normalized Zscore Rep 2” value came out at 0.5292. In addition, on SaCas9, the “3 sigma Hit” value was found to be 1 and the “5 sigma Hit” value is 1.

As for `CN(C)c1ncc(NS(=O)(=O)c2cc(F)ccc2F)cc1C(=O)O` [Cpd F293-0814], at SaCas9, the “Auto Zscore Rep 1” value turned out to be 2.553, the “Auto Zscore Rep 2” value came to 2.947, the “Normalized Zscore Rep 1” value is 0.2358 and the “Normalized Zscore Rep 2” value turned out to be 0.2376. On SaCas9, the “3 sigma Hit” value came out at 1 and the “5 sigma Hit” value came to 1.

As for `Cc1ccc(CSc2nc3c(c(=O)[nH]2)C(c2ccc(O)c(O)c2)CC(=O)N3)cc1` (stereo not drawn) [Cpd D271-0008], at SaCas9, the “Auto Zscore Rep 1” value is on record as −0.4729, the “Auto Zscore Rep 2” value is listed as −0.3637, the “Normalized Zscore Rep 1” value is given as 0.198 and the “Normalized Zscore Rep 2” value is reported as 0.181. Further, on SaCas9, the “3 sigma Hit” value is 1 and the “5 sigma Hit” value was 1.

In the case of `COc1ccc2cc3c(N)nn(C(=O)c4ccc(F)cc4)c3nc2c1` [Cpd C594-0010], at SaCas9, the “Auto Zscore Rep 1” value is 0.8616, the “Auto Zscore Rep 2” value is recorded as −0.4814, the “Normalized Zscore Rep 1” value worked out at 0.1698 and the “Normalized Zscore Rep 2” value is listed as 0.2567. For the same compound, at SaCas9, the “3 sigma Hit” value is given as 1.

With `Cc1cccc(NC(=O)C2CCCN(c3ccc(-c4ccccc4)nn3)C2)c1` (stereo not drawn) [Cpd F305-0007], at SaCas9, the “Auto Zscore Rep 1” value was −0.4204, the “Auto Zscore Rep 2” value is −0.1511, the “Normalized Zscore Rep 1” value is recorded as 0.1614 and the “Normalized Zscore Rep 2” value is 0.1636. Besides, the “3 sigma Hit” value on SaCas9 is 1.
